Assay results as given in patent EP1007530B1, “6-O-SUBSTITUTED ERYTHROMYCIN COMPOUNDS AND METHOD FOR MAKING SAME” (ABBOTT LABORATORIES, priority 1996, dated 1997).

How the values were obtained:
Test in all cases: In vitro assay of antibacterial activity (agar dilution MIC)
Assay type in all cases: cell-based
Candida albicans CCH 442 = conditions: BHI agar, 35-37 °C, 20 to 24 hours, unit assumed
Experimental: (§1) Representative compounds of the present invention were assayed in vitro for antibacterial activity as follows: Twelve petri dishes containing successive aqueous dilutions of the test compound mixed with 10 mL of sterilized Brain Heart Infusion (BHI) agar (Difco 0418-01-5) were prepared. Each plate was inoculated with 1:100 (or 1:10 for slow-growing strains, such as Micrococcus and Streptococcus) dilutions of up to 32 different microorganisms, using a Steers replicator block. The inoculated plates were incubated at 35-37 °C for 20 to 24 hours, In addition, a control plate, using BHI agar containing no test compound, was prepared and incubated at the beginning and end of each test.
(§2) An additional plate containing a compound having known susceptibility patterns for the organisms being tested and belonging to the same antibiotic class as the test compound was also prepared and incubated as a further control, as well as to provide test-to-test comparability. Erythromycin A was used for this purpose.
(§3) After incubation, each plate was visually inspected. The minimum inhibitory concentration (MIC) was defined as the lowest concentration of drug yielding no growth, a slight haze, or sparsely isolated colonies on the inoculum spot as compared to the growth control. […]

[1] = tested on: Enterobacter aerogenes ATCC 13048; conditions: BHI agar, 35-37 °C, 20 to 24 hours, unit assumed
Experimental: as §1, §2, §3

[2] = tested on: Enterococcus faecium ATCC 8043; conditions: BHI agar, 35-37 °C, 20 to 24 hours, unit assumed
Experimental: as §1, §2, §3

Escherichia coli DC-2 = conditions: BHI agar, 35-37 °C, 20 to 24 hours, unit assumed
Experimental: as §1, §2, §3

Escherichia coli H560 = conditions: BHI agar, 35-37 °C, 20 to 24 hours, unit assumed
Experimental: as §1, §2, §3

Escherichia coli JUHL = conditions: BHI agar, 35-37 °C, 20 to 24 hours, in µg/mL (unit assumed)
Experimental: as §1, §2, §3

Escherichia coli KNK 437 = conditions: BHI agar, 35-37 °C, 20 to 24 hours, unit assumed
Experimental: as §1, §2, §3

Escherichia coli SS = conditions: BHI agar, 35-37 °C, 20 to 24 hours, unit assumed
Experimental: as §1, §2, §3

[3] = tested on: Klebsiella pneumoniae ATCC 8045; conditions: BHI agar, 35-37 °C, 20 to 24 hours, unit assumed
Experimental: as §1, §2, §3

[4] = tested on: Micrococcus luteus ATCC 9341; conditions: BHI agar, 35-37 °C, 20 to 24 hours, unit assumed
Experimental: as §1, §2, §3

[5] = tested on: Mycobacterium smegmatis ATCC 114; conditions: BHI agar, 35-37 °C, 20 to 24 hours, unit assumed
Experimental: as §1, §2, §3

[6] = tested on: Nocarrdia asteroides ATCC 9970; conditions: BHI agar, 35-37 °C, 20 to 24 hours, unit assumed
Experimental: as §1, §2, §3

[7] = tested on: Providencia struartii CMX 640; conditions: BHI agar, 35-37 °C, 20 to 24 hours, unit assumed
Experimental: as §1, §2, §3

[8] = tested on: Pseudomonas aeruginosa 5007; conditions: BHI agar, 35-37 °C, 20 to 24 hours, unit assumed
Experimental: as §1, §2, §3

[9] = tested on: Pseudomonas aeruginosa BMH10; conditions: BHI agar, 35-37 °C, 20 to 24 hours, in µg/mL (unit assumed)
Experimental: as §1, §2, §3

[10] = tested on: Pseudomonas aeruginosa DPHD-2862; conditions: BHI agar, 35-37 °C, 20 to 24 hours, unit assumed
Experimental: as §1, §2, §3

[11] = tested on: Pseudomonas aeruginosa DPHD-5263; conditions: BHI agar, 35-37 °C, 20 to 24 hours, in µg/mL (unit assumed)
Experimental: as §1, §2, §3

[12] = tested on: Pseudomonas aeruginosa K799/WT; conditions: BHI agar, 35-37 °C, 20 to 24 hours, unit assumed
Experimental: as §1, §2, §3

Pseudomonas capacia 2961 = conditions: BHI agar, 35-37 °C, 20 to 24 hours, in µg/mL (unit assumed)
Experimental: as §1, §2, §3

[13] = tested on: Staphylococcus aureus 1775; conditions: BHI agar, 35-37 °C, 20 to 24 hours, unit assumed
Experimental: as §1, §2, §3

[14] = tested on: Staphylococcus aureus A-5278; conditions: BHI agar, 35-37 °C, 20 to 24 hours, unit assumed
Experimental: as §1, §2, §3

[15] = tested on: Staphylococcus aureus ATCC 6538P; conditions: BHI agar, 35-37 °C, 20 to 24 hours, unit assumed
Experimental: as §1, §2, §3

[16] = tested on: Staphylococcus aureus CMX 553; conditions: BHI agar, 35-37 °C, 20 to 24 hours, unit assumed
Experimental: as §1, §2, §3

[17] = tested on: Staphylococcus aureus CMX 642A; conditions: BHI agar, 35-37 °C, 20 to 24 hours, unit assumed
Experimental: as §1, §2, §3

[18] = tested on: Staphylococcus aureus NCTC10649M; conditions: BHI agar, 35-37 °C, 20 to 24 hours, unit assumed
Experimental: as §1, §2, §3

[19] = tested on: Staphylococcus epidermidis 3519; conditions: BHI agar, 35-37 °C, 20 to 24 hours, unit assumed
Experimental: as §1, §2, §3

[20] = tested on: Streptococcus agalactiae CMX 508; conditions: BHI agar, 35-37 °C, 20 to 24 hours, unit assumed
Experimental: as §1, §2, §3

[21] = tested on: Streptococcus bovis A-5169; conditions: BHI agar, 35-37 °C, 20 to 24 hours, unit assumed
Experimental: as §1, §2, §3

[22] = tested on: Streptococcus pyogenes 930; conditions: BHI agar, 35-37 °C, 20 to 24 hours, unit assumed
Experimental: as §1, §2, §3

[23] = tested on: Streptococcus pyogenes EES61; conditions: BHI agar, 35-37 °C, 20 to 24 hours, unit assumed
Experimental: as §1, §2, §3

[24] = tested on: Streptococcus pyogenes PIU 2548; conditions: BHI agar, 35-37 °C, 20 to 24 hours, unit assumed
Experimental: as §1, §2, §3

[25] = tested on: Actinetobacter calcoaceticus CMX 669; conditions: BHI agar, 35-37 °C, 20 to 24 hours, unit assumed
Experimental: as §1
(§4) An additional plate containing a compound having known susceptibility patterns for the organisms being tested and belonging to the same antibiotic class as the test compound was also prepared and incubated as a further control, as well as to provide test-to-test comparability.
as §3

[26] = tested on: Staphylococcus aureus A5177; conditions: BHI agar, 35-37 °C, 20 to 24 hours, unit assumed
Experimental: as §1, §4, §3

[27] = tested on: Micrococcus luteus ATCC 4698; conditions: BHI agar, 35-37 °C, 20 to 24 hours, unit assumed
Experimental: as §1, §2, §3

[28] = tested on: Pseudomonas aeruginosa K799/61; conditions: BHI agar, 35-37 °C, 20 to 24 hours, unit assumed
Experimental: as §1, §2, §3

Compound | MIC (Candida albicans CCH 442) | MIC [1] | MIC [2] | MIC (Escherichia coli DC-2) | MIC (Escherichia coli H560) | MIC (Escherichia coli JUHL) | MIC (Escherichia coli KNK 437) | MIC (Escherichia coli SS) | MIC [3] | MIC [4] | MIC [5] | MIC [6] | MIC [7] | MIC [8] | MIC [9] | MIC [10] | MIC [11] | MIC [12] | MIC (Pseudomonas capacia 2961) | MIC [13] | further results
CC[C@H]1OC(=O)[C@H](C)[C@@H](O[C@H]2C[C@@](C)(OC)[C@@H](O)[C@H](C)O2)[C@H](C)[C@@H](O[C@@H]2O[C@H](C)C[C@H](N(C)C)[C@H]2O)[C@](C)(OCC(O)CN=[N+]=[N-])C[C@@H](C)C(=O)[C@H](C)[C@@H](O)[C@]1(C)O (some centres unmarked) [Example 11, Compound of Formula (X): X is =O, R is -CH2-CHOH-CH2-N3] | > 100 µg/mL | > 100 µg/mL | 0.39 µg/mL | > 100 µg/mL | 50 µg/mL | 100 | > 100 µg/mL | 1.56 µg/mL | > 100 µg/mL | 0.05 µg/mL | 0.39 µg/mL | 0.1 µg/mL | > 100 µg/mL | > 100 µg/mL | > 100 | > 100 µg/mL | > 100 | > 100 µg/mL | > 100 | > 100 µg/mL | MIC [14]: > 100 µg/mL; MIC [15]: 0.78 µg/mL; MIC [16]: 0.78 µg/mL; MIC [17]: 1.56 µg/mL; MIC [18]: 0.78 µg/mL; MIC [19]: 0.78 µg/mL; MIC [20]: 0.05 µg/mL; MIC [21]: 0.2 µg/mL; MIC [22]: > 100 µg/mL; MIC [23]: 0.05 µg/mL; MIC [24]: 25 µg/mL; MIC [25]: 25 µg/mL; MIC [26]: 6.2 µg/mL
CC[C@H]1OC(=O)[C@H](C)[C@@H](O[C@H]2C[C@@](C)(OC)[C@@H](O)[C@H](C)O2)[C@H](C)[C@@H](O[C@@H]2O[C@H](C)C[C@H](N(C)C)[C@H]2O)[C@](C)(OCC=O)C[C@@H](C)C(=O)[C@H](C)[C@@H](O)[C@]1(C)O [Example 8, Compound of Formula (X): X is =O, R is 2-oxoethyl] | > 100 µg/mL | > 100 µg/mL | 0.39 µg/mL | > 100 µg/mL | 50 µg/mL | 100 | > 100 µg/mL | 1.56 µg/mL | > 100 µg/mL | 0.1 µg/mL | 6.2 µg/mL | 0.39 µg/mL | > 100 µg/mL | > 100 µg/mL | > 100 | > 100 µg/mL | > 100 | > 100 µg/mL | > 100 | > 100 µg/mL | MIC [27]: 1.56 µg/mL; MIC [28]: 3.1 µg/mL; MIC [14]: > 100 µg/mL; MIC [15]: 0.78 µg/mL; MIC [16]: 0.78 µg/mL; MIC [17]: 0.78 µg/mL; MIC [18]: 0.78 µg/mL; MIC [19]: 0.78 µg/mL; MIC [20]: 0.39 µg/mL; MIC [21]: 0.2 µg/mL; MIC [22]: > 100 µg/mL; MIC [23]: 0.1 µg/mL; MIC [24]: 25 µg/mL; MIC [25]: 50 µg/mL; MIC [26]: 12.5 µg/mL
